Source: patent US11058718B2, “Method for treating non-alcoholic steatohepatitis (NASH) with the combination of polaprezinc and sodium selenite” (Medico Consl Co., Ltd., priority 2019, dated 2021)

How the values were obtained:
[1] = system: NASH model mice (STAM mouse); test: NASH model (STAM) mice, oral administration once a day for 28 days; liver tissue images, liver weight, serum and hepatic markers, NAS; assay type: in vivo; parameters: TNF-alpha, Score showing the degree of inflammation / IFN-gamma, Score showing the degree of inflammation: scale not given here; conditions: for serum ferritin level: oral 28 days (FIG. 7); for TNF-alpha, Score showing the degree of inflammation: oral 28 days (FIG. 11); for IFN-gamma, Score showing the degree of inflammation: oral 28 days (FIG. 12); for hepatic fibrosis area ratio: oral 28 days (FIG. 13); for weight ratio of liver to body / serum ALT level / hepatic TG (hepatic triglyceride) / MCP-1 (monocyte chemotactic protein-1) / NAS (NAFLD activity score) / hepatic ballooning score / lobular inflammation score / steatosis score / NAS (NAFLD activity score) improvement, in words: oral 28 days; for weight ratio of liver to body: after administration (FIG. 5); for serum ALT level: after administration (FIG. 6); for hepatic TG (hepatic triglyceride): after administration (FIG. 9); for MCP-1 (monocyte chemotactic protein-1): after administration (FIG. 10); for NAS (NAFLD activity score): full score of 8 (FIG. 17); for hepatic ballooning score: score of 0 to 2 (FIG. 14); for lobular inflammation score: score of 0 to 3 (FIG. 15); for steatosis score: score of 0 to 3 (FIG. 16); for liver weight: oral once a day, 28 days, polaprezinc 45.2 mg/kg, sodium selenite 150 μg/kg, after administration (FIG. 4); for NAS (NAFLD activity score) improvement, in words: comparison between groups
Protocol: An internationally prized and recognized STAM (registered trademark) mouse was used for the research model of non-alcoholic fatty liver disease (NAFLD) and/or non-alcoholic steatohepatitis (NASH). A STAM (registered trademark) mouse is an animal model of non-alcoholic steatohepatitis prepared by administrating inflammation inducer of the pancreas (patent literature 2) which Stelic Institute & Co. developed and is publically informed as patentee, and many research reports using this animal model has already been made domestic and overseas.
The NASH model mice were assigned to four groups (eight mice per group) by body weight stratification random sampling method so that the average body weight is equal. The four groups are the zinc preparation (polaprezinc)+selenium preparation (sodium selenite) group, zinc preparation (polaprezinc) alone group, selenium preparation (sodium selenite) alone group, and control group. The route of administration was oral administration, and the period of administration was 28 days.
The number of administration was once a day. The dosage was 10 ml/kg body weight and was administrated using an oral zonde.
The dosages of each group are shown below.
Blood was collected from the heart under ether anesthesia at the end of administration. The obtained serum was divisionally injected into a tube. It was euthanized by exsanguination after blood sampling and the photograph of the extracted liver was taken. For all necropsied animals, treatment was made to divide the liver into four respective lobes (right/left medial lobe, left lateral lobe, right lobe, caudate lobe), wherein especially the left lateral lobe was treated for three parts taking two each of its six equally divided parts, and the tissue image was analyzed.
The evaluation for non-alcoholic fatty liver disease (NAFLD) and/or non-alcoholic steatohepatitis (NASH) improvement was evaluated by the following items.
NAS (NAFLD activity score) is used to evaluate non-alcoholic fatty liver disease (NAFLD). NAS is advocated by Nonalcoholic⋅Steato⋅hepatitis⋅Clinical⋅Research⋅Network (nonpatent literature 2). […] The activity of NAS is evaluated by putting the three of steatosis, lobular inflammation, and Ballooning degeneration into scores. It is shown in full score of 8 in total, score of 0 to 3 for steatosis and lobular inflammation, and score of 0 to 2 for hepatic Ballooning degeneration. Steatosis, lobular inflammation, hepatic Ballooning degeneration, and NAS (NAFLD activity score) was compared and examined for the four groups, the group of the combination drug of zinc preparation (polaprezinc) and selenium preparation (sodium selenite), the control group, the zinc preparation (polaprezinc) alone group, and the selenium preparation (sodium selenite) alone group.

hepatic fibrosis = conditions: from patent literature 1, nonpatent literature 3 and 5; cited from earlier work

SMILES | serum ferritin level [1] | TNF-alpha, Score showing the degree of inflammation [1] | IFN-gamma, Score showing the degree of inflammation [1] | hepatic fibrosis area ratio [1] [%] | weight ratio of liver to body [1] [%] | serum ALT level [1] [IU/L] | hepatic TG (hepatic triglyceride) [1] [mg/dL] | MCP-1 (monocyte chemotactic protein-1) [1] | NAS (NAFLD activity score) [1] | hepatic ballooning score [1] | lobular inflammation score [1] | steatosis score [1] | liver weight [1] | suppression of hepatic fibrosis (prior reports) (hepatic fibrosis) | F4/80 (macrophage) antigen expression level in stained liver tissue ([1]; oral 28 days (FIG. 2-1, 2-2)) | NAS (NAFLD activity score) improvement, in words [1] | NAS (NAFLD activity score) improvement, in words ([1]; listed as Zinc preparation (polaprezinc))
O=[Se](O)O [selenium preparation (sodium selenite), sodium selenite] | 5,251 ng/ml | 13.23 | 8.02 | 1.18 | 7.43 | 54.6 | 57.3 | 3.2 | 3.54 | 1.23 | 1.46 | 0.85 | 1,385.2 mg |  |  |  | 
NCCC(=O)[N-][C@@H](Cc1c[nH]cn1)C(=O)[O-].[Zn+2] [zinc preparation (polaprezinc), L-carnosine zinc salt] | 5,740 ng/ml | 12.80 | 7.95 | 1.16 | 7.49 | 58.8 | 64.2 | 3.3 | 3.62 | 1.38 | 1.38 | 0.85 | 1,389 mg | suppresses hepatic fibrosis | suppresses the expression level significantly compared with the control | significantly declined NAS (NAFLD activity score) compared with the control group | showed improvement compared to the control group
